Data as given in patent US11471462B2, “Compositions and methods for detecting and treating diabetes” (THE BROAD INSTITUTE, INC., priority 2016, dated 2022).

Test system: SLC16A11
Experiment: Compound treatment, SLC16A11 expression by ddPCR in SNU761 cells
Format: cell-based, human
Details: SNU761 cells; for avg_fc (SLC16A11 expression, compound treated vs DMSO treated cells): same doses and treatment times as in the LINCS dataset
Procedure: A small number of the compounds that made the strongest positive connections to the SLC16A11 gene expression signature were selected and tested. […] Methotrexate was also included, which had been annotated as a dihydrofolate reductase inhibitor. SNU761 cells (derived from a human hepatocellular carcinoma) and NCIH716 cells (derived from a human cecum adenocarcinoma), which both express SLC16A11, were treated with the compounds. The same compound concentrations and treatment times were used as in the LINCS dataset experiments. […] For normalization, a different housekeeper gene, HPRT1, was used and obtained similar results with the mTOR inhibitors (FIGS. 14A and 14B).
From the total list of compounds, 59 readily available compounds were selected from the 79 compounds with the largest connectivity scores to the query signature and 20 middle compounds with connectivity scores centered on 0 (FIG. 15A) and then treated SNU761 cells at the same doses and treatment times as were used in the LINCS dataset. It was expected that the top compounds would be enriched for compounds that increased SLC16A11 expression. […] The results were aligned with the expectations (FIG. 15B). Hierarchical clustering of the SLC16 expression profiles generated by the compound treatments are shown by the heat map in FIG. 15C.
SNU761 (human hepatocellular carcinoma) and NCIH716 (human cecum adenocarcinoma) were cultured in RPMI Medium 1640 supplemented with 10% Fetal Bovine Serum (FBS), 100 μg/ml Streptomycin and 100 U/ml Penicillin. Cells were grown in a humidified CO2 incubator, at 37° C.
For the unbiased approach taken to investigate the compounds that connected to the SLC16A11 gene expression signature, compounds were obtained from compound management at the Broad Institute.
SNU761 and NCIH716 cells were plated into 96 well plates at a density of 20,000 cells per well. Hepatocytes were plated into collagen coated 96 well plates (Corning, 354408) at a density of 50,000 cells per well. After 24 hours, cells were treated with compounds at a final concentration of 10 μM or vehicle control for the appropriate amount of time.
At the time of collection, cells in 96 well plates were lysed by directly adding 50 μL of RLT buffer (Qiagen). 75 μL of AMPure XP beads, diluted by a factor of 5 in polyethylene glycol, were then added to bind nucleic acids. One wash with polyethylene glycol was then performed. DNase treatment (Qiagen) was carried out according to the manufacturer's protocol in a final volume of 50 μL. 100 μL of polyethylene glycol was added after the DNase treatment to crowd nucleic acids back onto the beads. Two washes with 80% ethanol were performed and residual ethanol was removed. RNA was then eluted in water.
RNA was DNase treated and converted into cDNA using the High-Capacity RNA-to-cDNA kit (Thermo Fisher Scientific). The following FAM-labeled TaqMan Real-Time PCR assays (Thermo Fisher Scientific) were used to quantify gene expression: SLC16A11 (Hs00601062_g1), SLC16A13 (Hs00416832_m1), SLC16A1 (Hs01560299_m1). The VIC-labeled TaqMan Real-Time assays TBP (Hs00427620_m1) or HPRT1 (Hs02800695_m1) were used for normalization. Droplets were generated and analyzed using a QX200 Droplet Generator and Reader system (BioRad). Data was extracted using QuantaSoft (BioRad) and analyzed using Microsoft Excel.

| SMILES | avg_fc (SLC16A11 expression, compound treated vs DMSO treated cells) | increase in SLC16A11 expression, compound treated compared to DMSO treated cells (unbiased test of 59 top and 20 middle LINCS compounds, LINCS doses and times) |
| --- | --- | --- |
| Cc1cn(-c2cc(C(=O)Nc3ccc(C)c(NC(=O)c4ccno4)c3)cc(C(F)(F)F)c2)cn1 [ALW-II-38-3] | 0.9734 | – |
| O=C1NC(=O)/C(=C/c2ccc3c(c2)OC(F)(F)O3)S1 [AS-604850] | 1.009 | – |
| O=C1NC(=O)/C(=C\c2ccc3nccnc3c2)S1 [AS-605240] | 0.7908 | – |
| O=C(NC[C@H](O)CO)c1ccncc1Nc1ccc(I)cc1F [AS-703026] | 1.68 | – |
| Cc1cc([C@@H](C)Nc2ccccc2C(=O)O)c2nc(N3CCOCC3)cc(=O)n2c1 [AZD-6482] | 2.176 | – |
| NC(=O)Nc1cc(-c2cccc(F)c2)sc1C(=O)N[C@H]1CCCNC1 [AZD-7762, 3-[(aminocarbonyl)amino]-5-(3-fluorophenyl)-N-(3S)-3-piperidinyl-2-thiophenecarboxamide, reference compound] | 4.924 | about 5 fold |
| OC1CCC(Nc2ncc3nc(Nc4c(F)cc(F)cc4F)n([C@@H]4CCOC4)c3n2)CC1 (stereo partly shown) [CG-930] | 1.337 | – |
| COCC(=O)NC/C=C/c1ccc2ncnc(Nc3ccc(Oc4ccc(C)nc4)c(C)c3)c2c1 [CP-724714] | 1.37 | – |
| C[C@H](NC(=O)Cc1cc(F)cc(F)c1)C(=O)N[C@H](C(=O)OC(C)(C)C)c1ccccc1 [DAPT-GSI-IX] | 1.286 | – |
| Cc1nc2c(c(=O)[nH]1)CSCC2 [DR-2313] | 1.127 | – |
| Cc1cccc(CCN2CCC(C(=O)c3ccc(NS(C)(=O)=O)cc3)CC2)n1 [E-4031] | 0.9411 | – |
| Nc1[nH]nc2nnc(-c3c(-c4ccccc4)nn4ccccc34)cc12 [FR-180204] | 0.915 | – |
| CS(=O)(=O)N1CCN(Cc2cc3nc(-c4cccc5[nH]ncc45)nc(N4CCOCC4)c3s2)CC1 [GDC-0941] | 2.079 | – |
| COc1ccc(CNC(=O)/C=C/c2ccc3[nH]cc(CCN(C)C)c3c2)cc1 [GR-46611] | 0.6609 | – |
| O=C1NC(=O)/C(=C/c2ccc3nccc(-c4ccncc4)c3c2)S1 [GSK-1059615] | 1.25 | – |
| c1ccc2c(CCNc3ccc(Nc4ccncc4)cc3)c[nH]c2c1 [JNJ-26854165] | 0.5328 | – |
| O=C(NC(COc1ccc2[nH]c(=O)[nH]c2c1)c1ccccc1)c1cccn(Cc2ccc(F)c(F)c2)c1=O (stereo not shown) [KIN001-244] | 1.084 | – |
| N#CC(=C(N)Sc1ccc(N)cc1)c1ccccc1C(F)(F)F [MEK1-2-inhibitor] | 1.414 | – |
| Clc1cncc(N2CCNCC2)n1 [MK-212] | 0.8022 | – |
| NC1(c2ccc(-c3nc4ccn5c(=O)[nH]nc5c4cc3-c3ccccc3)cc2)CCC1 [MK-2206] | 0.6972 | – |
| O=c1cc(N2CCOCC2)oc2c1ccc1ccccc12 [NU-7026] | 1.12 | – |
| Cn1c(=O)n(-c2ccc(C(C)(C)C#N)cc2)c2c3cc(-c4cnc5ccccc5c4)ccc3ncc21 [NVP-BEZ235, 2-methyl-2-[4-(3-methyl-2-oxo-8-quinolin-3-ylimidazo[4,5-c]quinolin-1-yl)phenyl]propanenitrile, reference compound] | 2.779 | – |
| COc1cccc2cc(-c3nc([C@H]4CC[C@H](C(=O)O)CC4)n4ncnc(N)c34)[nH]c12 [OSI-027, trans-4-[4-amino-5-(7 methoxy-1H-indol-2-yl)imidazo[5,1-f][1,2,4]triazin-7-yl]-cyclohexanecarboxylic acid, reference compound] | 3.384 | – |
| COc1cccc(-c2cc(=O)c3ccccc3o2)c1N [PD-98059] | 0.7929 | – |
